Converted amounts (≈) assume the structure as drawn. Read-outs that look alike come from different tables or passages of the source.
Legend:
JAK1-JH2 domain = target: T1, JAK1-JH2 domain (Homo sapiens, UniProt P23458); assay: Binding activity test for JAK1 JH2 domain (Tb-antibody/tracer FRET); settings: read-out: JAK1 JH2 Binding IC50
T1 construct: JAK1-JH2 domain or TYK2-JH2 domain enzyme
Experimental: Binding Activity test for JH2 domain of JAK and TYK2
75 nL DMSO for high control and low control.
For low control, add 5 μL/well assay buffer. […] After enzyme system prepared, add 5 μL of Tb-antibody solution into each wells of assay plate. […] After Tb-antibody added, also add 5 μL of tracer into the assay plate. […] Incubate for 60 mins at 25° C. firstly and then continue to incubate the plate at 4° C. overnight. Read by envision in FRET mode. The Luminescence value was recorded by a multi-label reader Envision (PerkinElmer). Inhibition Rate was calculated relative to vehicle (DMSO) treated control wells using following formula:
wherein • RLU_compound=the relative light unit of cells treated with test compounds • RLU_low control=the relative light unit of medium with DMSO only • RLU_high control=the relative light unit of cells treated with DMSO only

TYK2-JH2 domain = target: T2, TYK2-JH2 domain (Homo sapiens, UniProt P29597); assay: Binding activity test for TYK2 JH2 domain (Tb-antibody/tracer FRET); settings: for JAK1/TYK2 selectivity: ratio of JAK1 JH2 to TYK2 JH2 binding IC50; for IC50: read-out: TYK2 JH2 Binding IC50
T2 construct: JAK1-JH2 domain or TYK2-JH2 domain enzyme

pSTAT1 = assay: Phosphorylation inhibition of STAT in human whole blood (IFN-alpha stimulated, flow cytometry); type: cell-based; settings: T-cell, CD3+ T cells, read-out: pSTAT1 inhibition in hWB (IC50)
Experimental: Phosphorylation Inhibition of STAT in Human Whole Blood Testing: The inhibitory potential of test articles in human whole blood assay was evaluated by the method of flow cytometry. IFN-alpha will activate JAK1 and TYK2 kinase in T cells by binding to IFN receptors, and then lead to phosphorylation of STAT1 and STAT2. The phosphorylated STAT1 enter nuclear and promote transcription and expression of IFN-gamma. To evaluate the efficacy of TYK2i in T cells, freshly collected human whole blood will be stimulated with certain unit of human IFN-alpha (Universal Type I IFN (1MU), R&D, 11200-2) for 20 mins in incubator. After stimulation, fix cells with PhosflowTM Fix Buffer I (BD, 557870), and then collect fixed cells by centrifugation (500 g, 8 min). Wash cells once with pre-cooled PBS, and then permeabilize cells with cold Perm Buffer III buffer (BD, 558050) for 45 mins on ice. Collect cells by centrifugation (600 g, 8 min) and washed twice with cold PBS. Stain cells with anti-human CD3(FITC Mouse Anti-Human CD3, BD, 555332) and anti-pSTAT1_Y701 (Alexa Fluor 647 Mouse Anti-Stat1 ([…]), BD, 612597) antibodies. Detect pSTAT1 by flow cytometry (CytoFlex S) and analyze data with FlowJo and GraphPad Prism 8 software. IC50 values of test articles were determined using 4-parameter logistic equation.

Kinetic solubility = type: physicochemical; settings: 100 mM pH 7.4 phosphate buffer, 1% DMSO, room temperature, read-out: Kinetics Solubility_PBS7.4
Experimental: Aliquots of 8 μL of reference and test compound stock solutions (10 mM/5 mM) are added into 792 μL of 100 mM pH 7.4 phosphate buffer. The final DMSO concentration is 1%. Sample tubes are shaken for 2 hours at 1000 rpm at room temperature. Samples are centrifuged at 12000 rpm for 10 min to precipitate un-dissolved particles. And transfer the supernatants to a new tube or plate. Add 5 μL of samples (no diluted, 10 times diluted and 100 times diluted) and standard curve samples to 95 μL of ACN containing IS for LC-MS/MS analysis.

[1] = Microsomal metabolic stability assay; type: in vitro ADME, human; settings: for microsomal CLint at 1 µM / half-life at 1 µM: human, liver microsomes, pH 7.4, human liver microsomes 0.5 mg/mL; for microsomal CLint at 1 µM: read-out: Human LM Clint; for half-life at 1 µM: read-out: Human LM T½
Experimental: Microsomal Metabolic Stability Assay
Microsomes were pre-incubated with test compound or control compounds for 5 min at 37° C. in 100 mM potassium phosphate buffer, pH 7.4, 1.0 mM EDTA. The reaction was initiated by addition of 15 μL of the NADPH regenerating system to 30 μL of each incubation mixture per time point. The final incubation condition was composed of 0.5 mg/mL microsomal protein, 1 μM test article/positive control, 2 mM NADPH. The 0-minute samples were prepared by addition of a 30 μL aliquot of each incubation mixture to 135 μL quench reagent to precipitate proteins. And then a 15 μL aliquot of the NADPH regenerating system was added. At 5, 15, 30 and 45 minutes, the reaction will be stopped by the addition of cold acetonitrile solution containing internal standard. The samples taken at all time points were centrifuged at 5000×g for 15 minutes. 50 μL of supernatant are taken into 96-well assay plates pre-added with 50 μL ultrapure water, and then analyzed by LC/MS/MS.
Concentrations of test articles, control compounds in the samples were determined by using LC/MS/MS method. Plotting of the chromatograms and peak area integrations are carried out by Analyst (AB Sciex).
In the determination of the in vitro elimination constant (ke) of the control compounds, the analyte/internal standard peak area ratios will be converted to percentage remaining (% Remaining) with the following equation:
The CLint of microsomes was calculated using the formula: CLint (mic)=0.693/T1/2/mg microsome protein per mL. The slope was measured by the natural logarithm of the percentage of the residual compound and time, T1/2 was calculated according to the following formula.

TYK2 pathway = assay: IFN-γ release in NK92 cells stimulated by IL-12 (ELISA); type: cell-based; settings: Homo sapiens, IL-12 2.5 ng/mL
Excerpt: IFN-γ Release in NK92 Cells Stimulated by IL-12
Purpose: To evaluate the inhibition activity of TYK2 inhibitors in NK92 cells on TYK2 pathway through ELISA method.

[2] = human liver microsomes 0.5 mg/mL, 1 μM

T1 sequence (P23458 583-855 limits assumed): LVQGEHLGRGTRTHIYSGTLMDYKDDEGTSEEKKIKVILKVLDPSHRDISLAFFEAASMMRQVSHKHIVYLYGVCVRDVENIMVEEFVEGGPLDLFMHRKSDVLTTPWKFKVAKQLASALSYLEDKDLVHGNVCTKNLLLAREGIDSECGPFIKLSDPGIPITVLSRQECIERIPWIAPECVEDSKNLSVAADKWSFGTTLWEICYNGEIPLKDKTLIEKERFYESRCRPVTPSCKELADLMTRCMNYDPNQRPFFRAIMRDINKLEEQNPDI
T2 sequence (P29597 589-875 limits assumed): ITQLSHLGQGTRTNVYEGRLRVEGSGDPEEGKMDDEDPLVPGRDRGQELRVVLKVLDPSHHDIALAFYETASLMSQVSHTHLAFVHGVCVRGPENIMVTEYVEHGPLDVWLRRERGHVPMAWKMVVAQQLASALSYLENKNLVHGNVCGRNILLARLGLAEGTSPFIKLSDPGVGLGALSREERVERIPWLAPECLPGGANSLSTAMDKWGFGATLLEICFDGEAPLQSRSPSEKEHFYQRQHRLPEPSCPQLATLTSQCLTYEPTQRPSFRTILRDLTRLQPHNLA

For `[2H]C([2H])([2H])NC(=O)c1cnc(NC(=O)C2CC2)cc1Nc1cc(F)c2ccn(CC)c2c1OC` [Example 16, 6-(Cyclopropanecarboxamido)-4-((1-ethyl-4-fluoro-7-methoxy-1H-indol-6-yl)amino)-N-(methyl-d3)nicotinamide], the IC50 (JAK1-JH2 domain) was 5.82 nM, the JAK1/TYK2 selectivity (TYK2-JH2 domain) was 70.10 and the IC50 (TYK2-JH2 domain) was 0.083 nM. It also gave an IC50 (pSTAT1) of 220 nM.
In the case of `[2H]C([2H])([2H])NC(=O)c1cnc(NC(=O)[C@H]2C[C@H]2F)cc1Nc1ncc2cnn(CC(F)(F)F)c2c1OC` [Example 10, 6-((1R,2R)-2-fluorocyclopropane-1-carboxamido)-4-((7-methoxy-1-(2,2,2-trifluoroethyl)-1H-pyrazolo[4,3-c]pyridin-6-yl)amino)-N-(methyl-d3)nicotinamide], the solubility kinetic at 2 h (Kinetic solubility; aqueous buffer) is reported as 29 µM (≈ 14 µg/mL), the IC50 (JAK1-JH2 domain) is reported as 35.1 nM and the JAK1/TYK2 selectivity (TYK2-JH2 domain) is reported as 86.04. For the same compound, the IC50 (TYK2-JH2 domain) was 0.408 nM, the microsomal CLint at 1 µM [1] was 4.49 µL/min/mg and the half-life at 1 µM [1] was 309 min.
Compound `[2H]C([2H])([2H])NC(=O)c1cnc(NC(=O)C2CC2)cc1Nc1ccc2cnn(CC(C)(F)F)c2c1OC` [Example 2, 6-(Cyclopropanecarboxamido)-4-((1-(2,2-difluoropropyl)-7-methoxy-1H-indazol-6-yl)amino)-N-(methyl-d3)nicotinamide] has an IC50 (JAK1-JH2 domain) of 18.9 nM, a JAK1/TYK2 selectivity (TYK2-JH2 domain) of 78.97 and an IC50 (TYK2-JH2 domain) of 0.239 nM. The microsomal CLint at 1 µM [1] was 53.8 µL/min/mg, the half-life at 1 µM [1] was 25.8 min and the IC50 (pSTAT1) was 327 nM.
In the case of `[2H]C([2H])([2H])NC(=O)c1cnc(Nc2ccn(C)n2)cc1Nc1ncc2cnn(CC(C)(F)F)c2c1OC` [Example 22, 4-((1-(2,2-Difluoropropyl)-7-methoxy-1H-pyrazolo[4,3-c]pyridin-6-yl)amino)-N-(methyl-d3)-6-((1-methyl-1H-pyrazol-3-yl)amino)nicotinamide], the solubility kinetic at 2 h (Kinetic solubility; aqueous buffer) is reported as 19.8 µM (≈ 9.39 µg/mL), the IC50 (JAK1-JH2 domain) is reported as 297 nM and the JAK1/TYK2 selectivity (TYK2-JH2 domain) is reported as 113.31. The IC50 (TYK2-JH2 domain) was 2.62 nM, the microsomal CLint at 1 µM [1] was 9.25 µL/min/mg and the half-life at 1 µM [1] was 150 min.
`[2H]C([2H])([2H])NC(=O)c1cnc(NC(=O)C2CC2)cc1Nc1ncc2ncn(CC(C)(F)F)c2c1OC` [Example 14, 6-(Cyclopropanecarboxamido)-4-((1-(2,2-difluoropropyl)-7-methoxy-1H-imidazo[4,5-c]pyridin-6-yl)amino)-N-(methyl-d3)nicotinamide] gave a solubility kinetic at 2 h (Kinetic solubility; aqueous buffer) of 16.9 µM (≈ 7.82 µg/mL), an IC50 (JAK1-JH2 domain) of 38.8 nM and a JAK1/TYK2 selectivity (TYK2-JH2 domain) of 217.86. The IC50 (TYK2-JH2 domain) was 0.178 nM, the microsomal CLint at 1 µM [1] was 39.2 µL/min/mg and the half-life at 1 µM [1] was 35.3 min.
With `CNC(=O)c1cnc(NC(=O)C2CC2)cc1Nc1ncn2ncc(C#N)c2c1OC` [Example 20, 4-((3-Cyano-4-methoxypyrazolo[1,5-c]pyrimidin-5-yl)amino)-6-(cyclopropanecarboxamido)-N-methylnicotinamide] the IC50 (JAK1-JH2 domain) was 19.3 nM, the JAK1/TYK2 selectivity (TYK2-JH2 domain) was 63.62 and the IC50 (TYK2-JH2 domain) was 0.304 nM. It also gave a microsomal CLint at 1 µM [1] of 39.2 µL/min/mg, a half-life at 1 µM [1] of 35.4 min and an IC50 (pSTAT1) of 167 nM.
With `[2H]C([2H])([2H])NC(=O)c1cnc(NC(=O)C2CC2)cc1Nc1ncc2cnn(C(C)C(F)(F)F)c2c1OC` (single isomer, unassigned) [Example 3B, (S*)-6-(Cyclopropanecarboxamido)-4-((7-methoxy-1-(1,1,1-trifluoropropan-2-yl)-1H-pyrazolo[4,3-c]pyridin-6-yl)amino)-N-(methyl-d3)nicotinamide] the solubility kinetic at 2 h (Kinetic solubility; aqueous buffer) was 12.8 µM (≈ 6.13 µg/mL), the IC50 (JAK1-JH2 domain) was 114 nM and the JAK1/TYK2 selectivity (TYK2-JH2 domain) was 141.36. For the same compound, the IC50 (TYK2-JH2 domain) was 0.805 nM, the “Human LM Clint” value [1, 2] was 5.33 µL/min/mg and the half-life at 1 µM [1] was 260 min.
Work on `[2H]C([2H])([2H])NC(=O)c1cnc(NC(=O)[C@@H]2C[C@@H]2F)cc1Nc1ncc2cnn(CC(F)(F)F)c2c1OC` [Example 9, 6-((1S,2S)-2-fluorocyclopropane-1-carboxamido)-4-((7-methoxy-1-(2,2,2-trifluoroethyl)-1H-pyrazolo[4,3-c]pyridin-6-yl)amino)-N-(methyl-d3)nicotinamide] yielded a solubility kinetic at 2 h (Kinetic solubility; aqueous buffer) of 38.2 µM (≈ 18.5 µg/mL), an IC50 (JAK1-JH2 domain) of 35.2 nM and a JAK1/TYK2 selectivity (TYK2-JH2 domain) of 166.08. The IC50 (TYK2-JH2 domain) was 0.212 nM, the microsomal CLint at 1 µM [1] was 5.42 µL/min/mg and the half-life at 1 µM [1] was 256 min. The IC50 (pSTAT1) was 274 nM.
`[2H]C([2H])([2H])NC(=O)c1cnc(NC(=O)C2CC2)cc1Nc1ncc2ccn(CC)c2c1OC` [Example 18, 6-(Cyclopropanecarboxamido)-4-((1-ethyl-7-methoxy-1H-pyrrolo[3,2-c]pyridin-6-yl)amino)-N-(methyl-d3)nicotinamide] showed a solubility kinetic at 2 h (Kinetic solubility; aqueous buffer) of 41.5 µM (≈ 17.1 µg/mL), an IC50 (JAK1-JH2 domain) of 4.09 nM and a JAK1/TYK2 selectivity (TYK2-JH2 domain) of 83.55. The IC50 (TYK2-JH2 domain) was 0.049 nM.
In the case of `[2H]C([2H])([2H])NC(=O)c1cnc(NC(=O)C2CC2)cc1Nc1ccc2ccn(C([2H])([2H])[2H])c2c1OC` [Example 15, 6-(Cyclopropanecarboxamido)-4-((7-methoxy-1-(methyl-d3)-1H-indol-6-yl)amino)-N-(methyl-d3)nicotinamide], the IC50 (JAK1-JH2 domain) is reported as 1.47 nM, the JAK1/TYK2 selectivity (TYK2-JH2 domain) is reported as 15.64 and the IC50 (TYK2-JH2 domain) is reported as 0.094 nM. The IC50 (pSTAT1) was 205 nM.
Compound `[2H]C([2H])([2H])NC(=O)c1cnc(NC(=O)C2CC2)cc1Nc1ccn2ncc(Br)c2c1OC` [Example 29, 4-((3-Bromo-4-methoxypyrazolo[1,5-a]pyridin-5-yl)amino)-6-(cyclopropanecarboxamido)-N-(methyl-d3)nicotinamide] has an IC50 (TYK2 pathway) of 32.1 nM, an IC50 (JAK1-JH2 domain) of 7.87 nM and a JAK1/TYK2 selectivity (TYK2-JH2 domain) of 42.0. For the same compound, the IC50 (TYK2-JH2 domain) was 0.188 nM.
“(R*)-6(Cyclopropanecarboxamido)-4((7-methoxy-1-(1,1,1-trifuoropropan-2-yl)-1H-pyrazolo[4,3-c]pyridin-6-yl)amino)-N-(methyl-d3)nicotinamide [Example 3A]” showed a solubility kinetic at 2 h (Kinetic solubility) of 19.05 µM, an IC50 (JAK1-JH2 domain) of over 298 nM and a JAK1/TYK2 selectivity (TYK2-JH2 domain) of over 34.94. For the same compound, the IC50 (TYK2-JH2 domain) was 8.54 nM, the “Human LM Clint” value [1, 2] was 6.20 µL/min/mg and the “Human LM T½” value [1, 2] was 223.67 min.
Work on `[2H]C([2H])([2H])NC(=O)c1cnc(NC(=O)C2CC2)cc1Nc1ccc2ncn(CC(F)(F)F)c2c1OC` [Example 27, 6-(Cyclopropanecarboxamido)-4-((7-methoxy-1-(2,2,2-trifluoroethyl)-1H-benzo[d]imidazol-6-yl)amino)-N-(methyl-d3)nicotinamide] yielded a solubility kinetic at 2 h (Kinetic solubility; aqueous buffer) of 44.2 µM (≈ 20.6 µg/mL), an IC50 (JAK1-JH2 domain) of over 298 nM and a JAK1/TYK2 selectivity (TYK2-JH2 domain) of over 107.8. It also gave an IC50 (TYK2-JH2 domain) of 2.77 nM.

Reference: US20260284066A1, “TYK2 INHIBITORS AND COMPOSITIONS AND METHODS THEREOF” (LYNK PHARMACEUTICALS CO. LTD., priority 2023, published 2026)
